In PMC7855930, “Nontoxic Cobalt(III) Schiff Base Complexes with Broad‐Spectrum Antifungal Activity” (Chemistry (Weinheim an Der Bergstrasse, Germany), 2020):
“And” between values parts separate entries of the source, which are not always exact repeats. Equal entries are not always repeated.

What was measured:
C. albicans ATCC 90028 = experiment: Antifungal MIC assay (broth microdilution in YNB); format: cell-based, Candida albicans; settings: for MIC Candida albicans ATCC 90028: Table S1; for MIC: range of MICs, n=8, 35 °C, 36 h, visual, read-out: MIC C. albicans ATCC 90028
Source text: (§1) Yeast strains: Candida albicans (ATCC 90028, NCCLS 11), Cryptococcus neoformans (ATCC 208821, H99 type strain), Candida tropicalis (ATCC 750, type strain), Candida glabrata (ATCC 90030, NCCLS 84) and Cryptococcus deuterogattii (ATCC 32609, type strain) were obtained from the American Type Culture Collection (ATCC). Cryptococcus deuterogattii (CBS 7750), Candida auris (CBS 10913) and Candida auris (CBS 12373) were obtained from the CBS‐KNAW culture collection. The strains were maintained on glycerol/YPD (yeast extract‐peptone dextrose) broth (20:80 v/v) at −80 °C.
(§2) Antifungal minimum inhibitory concentration (MIC) assay: The cobalt complexes and antifungal control compounds were serially diluted in 50 μL of Yeast Nitrogen Broth (YNB; BD, Cat No. 233520 supplemented with 2 % glucose and 10 mM ammonium sulfate) two‐fold across the wells of non‐binding surface (NBS) 96‐well plates (Corning; Cat. No. 3641). Plates were set up in quadruplicate for each strain tested, and two biological replicates were conducted on separate assay days.
(§3) Yeast strains were cultured from glycerol onto YPD (Becton Dickinson 242720) agar at 30 °C for 72 h. For each strain, a minimum of five single colonies were taken from the agar plate and dissolved in sterile water and adjusted to form a yeast suspension of 1×10^6 to 5×10^6 CFU mL^−1 (as determined by OD530). The suspension was subsequently diluted into YNB media, and added to each well of the compound containing plates, giving a final cell density of 2.5×10^3 CFU mL^−1 and a total volume of 100 μL. Plates were covered and incubated at 35 °C for 36 h without shaking.
(§4) Growth inhibition of all strains was determined visually where the MIC was recorded as the lowest compound concentration with no visible growth. Fluconazole (Sigma F8929), ketoconazole (Sigma K1003) and micafungin (Sigma SML2288) were used as internal positive inhibitor controls for every strain tested.

C. auris CBS 10913 = experiment: Antifungal MIC assay (broth microdilution in YNB); format: cell-based, Candida auris; settings: for MIC Candida auris CBS 10913: Table S1
Source text: as §1, §2, §3, §4

C. auris CBS 12373 = experiment: Antifungal MIC assay (broth microdilution in YNB); format: cell-based, Candida auris; settings: for MIC Candida auris CBS 12373: Table S1; for MIC: range of MICs, n=8, 35 °C, 36 h, visual, read-out: MIC C. auris CBS 12373
Source text: as §1, §2, §3, §4

C. glabrata ATCC 90030 = experiment: Antifungal MIC assay (broth microdilution in YNB); format: cell-based, Candida glabrata; settings: for MIC Candida glabrata ATCC 90030: Table S1; for MIC: range of MICs, n=8, 35 °C, 36 h, visual, read-out: MIC C. glabrata ATCC 90030
Source text: as §1, §2, §3, §4

C. tropicalis ATCC 750 = experiment: Antifungal MIC assay (broth microdilution in YNB); format: cell-based, Candida tropicalis; settings: for MIC Candida tropicalis ATCC 750: Table S1
Source text: as §1, §2, §3, §4

[1] = tested on: C. deuterogattii ATCC 32609; experiment: Antifungal MIC assay (broth microdilution in YNB); format: cell-based, Cryptococcus deuterogattii; settings: for MIC Cryptococcus deuterogattii ATCC 32609: Table S1
Source text: as §1, §2, §3, §4

[2] = tested on: C. deuterogattii CBS 7750; experiment: Antifungal MIC assay (broth microdilution in YNB); format: cell-based, Cryptococcus deuterogattii; settings: for MIC Cryptococcus deuterogattii CBS 7750: Table S1; for MIC: range of MICs, n=8, 35 °C, 36 h, visual, read-out: MIC C. deuterogattii CBS 7750
Source text: as §1, §2, §3, §4

[3] = tested on: C. neoformans ATCC 208821; experiment: Antifungal MIC assay (broth microdilution in YNB); format: cell-based, Cryptococcus neoformans; settings: for MIC Cryptococcus neoformans ATCC 208821: Table S1
Source text: as §1, §2, §3, §4

human red blood cells = experiment: Haemolysis assay; format: cell-based; settings: 1 h at 37 °C
Method: Haemolysis assay: Human whole blood (Australian Red Cross Blood Service) was washed three times with three volumes of 0.9 % NaCl and resuspended in a concentration of 0.5×10^8 cells mL^−1, determined by manual cell count in a Neubauer haemocytometer. Washed cells were added to compound containing plates (384‐well round bottom polypropylene plates, Corning 3657) for a final volume of 50 μL, shaken for 10 min and incubated for 1 h at 37 °C, without shaking. After incubation, the plates were centrifuged at 1000 g for 10 min to pellet cells and debris, 25 μL of the supernatant was then transferred to reading plates (384‐well flat bottom polystyrene plates, Corning CLS3680), with haemolysis determined by measuring the supernatant absorbance at […] (OD405), using cells without inhibitors as negative control and cells with 1 % Triton X‐100 (Sigma T8787) as positive control. HC10 and HC50 (concentration at which 10 and 50 % haemolysis is induced, respectively) were calculated by curve fitting the inhibition values vs. log(concentration) of four replicates using a sigmoidal dose–response function with variable fitting values for top, bottom and slope using Prism 8. Melittin (Sigma M2272) was used as positive haemolytic control on each plate. Human ethics approval from the University of Queensland Institutional Human Research Ethics Committee was obtained for use of human blood for haemolysis studies (approval number 201400003).

[4] = tested on: Escherichia coli ATCC 25922; experiment: CO-ADD bacterial broth microdilution MIC assay; format: cell-based; settings: CAMHB, 37 °C, 18 h, ≥ 80% inhibition
Method: CO-ADD High Throughput Screening
Bacterial broth microdilution minimum inhibitory concentration (MIC) assay Bacterial strains were cultured in Cation-adjusted Mueller Hinton broth (CAMHB; Bacto Laboratories 212322) at 37 °C overnight. A sample of each culture was then diluted 40-fold in fresh CAMHB and incubated at 37 °C for 1.5-3 h. The resultant mid-log phase cultures were diluted with CAMHB (CFU/mL measured by OD600), then added to each well of the compound-containing plates (384-well non-binding surface (NBS) plates; Corning CLS3640), giving a cell density of 5 × 10^5 CFU/mL and a total volume of 50 µL. Plates were covered and incubated at 37 °C for 18 h without shaking. Inhibition of bacterial growth was determined measuring absorbance at 600 nm (OD600), using media only as negative control and bacteria without inhibitors as positive control. MIC values were determined as the lowest concentration at which the growth was inhibited at ≥ 80%. Colistin sulfate (Sigma C4461) and vancomycin HCl (Sigma 861987) were used as positive inhibitor controls on each plate for Gram-negative and Gram-positive bacteria, respectively.
Figure S1. 1H NMR (400 MHz) of [Co(ATS)(DMAP)2]NO3 (3) in DMSO-d6.
(1 picture or pasted object on this page, not shown here)

[5] = range of MICs, n=8, 35 °C, 36 h, visual

Structure (SMILES) | MIC Candida albicans ATCC 90028 (C. albicans ATCC 90028) [µg/mL] | MIC (C. albicans ATCC 90028) [µM] | MIC Candida auris CBS 10913 (C. auris CBS 10913) [µg/mL] | MIC Candida auris CBS 12373 (C. auris CBS 12373) [µg/mL] | MIC (C. auris CBS 12373) [µM] | MIC Candida glabrata ATCC 90030 (C. glabrata ATCC 90030) [µg/mL] | MIC (C. glabrata ATCC 90030) [µM] | MIC Candida tropicalis ATCC 750 (C. tropicalis ATCC 750) [µg/mL] | MIC Cryptococcus deuterogattii ATCC 32609 [1] [µg/mL] | MIC Cryptococcus deuterogattii CBS 7750 [2] [µg/mL] | MIC [2] [µM] | MIC Cryptococcus neoformans ATCC 208821 [3] [µg/mL] | Haem HC10 (concentration at which 10 % haemolysis is reached) (human red blood cells) | MIC Ec (Escherichia coli ATCC 25922) [4] [µg/mL] | other results
O=[N+]([O-])[O-].O=[N+]([O-])[O-].[Co+2] [Co, Co(NO3)2, reference compound] | > 29.1 | >100 | > 29.1 | 29.1 | 100 | > 29.1 | >100 | > 29.1 | > 29.1 | > 29.1 | >100 | > 29.1 | >100 µM | > 32 | MIC (C. auris CBS 10913; range of MICs, n=8, 35 °C, 36 h, visual, read-out: MIC C. auris CBS 10913): >100 µM; MIC (C. tropicalis ATCC 750; range of MICs, n=8, 35 °C, 36 h, visual, read-out: MIC C. tropicalis ATCC 750): >100 µM; MIC ([1]; range of MICs, n=8, 35 °C, 36 h, visual, read-out: MIC C. deuterogattii ATCC 32609): >100 µM; MIC ([3]; range of MICs, n=8, 35 °C, 36 h, visual, read-out: MIC C. neoformans ATCC 208821): >100 µM
CC1=[N+]2N=C(N)[S][Co-3]23([n+]2ccc(N(C)C)cc2)([n+]2ccc(N(C)C)cc2)[S]C(N)=N[N+]3=C1C.O=[N+]([O-])[O-] [Compound 3, [Co(ATS)(DMAP)2]NO3] | 0.93 | 1.56 | 0.23 to 0.46 | 0.46 | 0.78 | 29.7 | 50 | 0.23 to 0.46 | 0.93 to 1.86 | 0.93 | 1.56 | 0.46 to 0.93 | 73.1 µM and 73.1 ± 20.4 µM | > 32 | MIC C. auris CBS 10913 (C. auris CBS 10913; [5]): 0.39 to 0.78 µM; MIC C. tropicalis ATCC 750 (C. tropicalis ATCC 750; [5]): 0.39 to 0.78 µM; MIC C. deuterogattii ATCC 32609 [1, 5]: 1.56 to 3.12 µM
